Paper PMC8231654, “Evaluation of Cytotoxic and Mutagenic Effects of the Synthetic Cathinones Mexedrone, α-PVP and α-PHP” (International Journal of Molecular Sciences, 2021)
Like-named read-outs stand apart in the source and are kept apart here.

Experiments:
[1] = cited from earlier work; for mutagenic potential: psychoactive phenethylamines; for mutagenic capacity in terms of increasing the frequency of MNi: synthetic cannabinoids, first study of 2020
[2] = test system: NET; set-up: method as in PMID 27524685; conditions: monoamine uptake, rats' brain synaptosomes; cited from earlier work
[3] = test system: TK6 cells; assay: In vitro micronucleus test by flow cytometry, with S9 mix; type: cell-based, human; conditions: 3 h + S9 mix, 23 h recovery, 75 and 100 µM
Protocol: (§1) The analysis of the MNi frequency was performed using an automated protocol published by Lenzi et al..
(§2) A total of 10,000 nuclei, derived from viable and proliferating cells, and the corresponding number of MNi were acquired and analyzed by Guava Incyte software. The discrimination between nuclei and MNi occurs on the basis of the different size and intensity of green fluorescence.
(§3) The MNi frequency (number of MNi/10,000 nuclei) recorded in treated cultures were normalized on those recorded in the concurrent negative control cultures, accounted equal to 1 and expressed as MNi frequency fold increase.
The exogenous metabolic activation system employed is a co-factor-supplemented post-mitochondrial fraction (S9 mix) prepared from the livers of rats treated with enzyme-inducing agent Aroclor 1254. The final concentration of S9 in the culture medium was 0.75%.
(§4) We used the clastogen MMC and the aneuploidogen VINB as positive controls in absence of S9 mix, while CP, a clastogen agent requiring metabolic activation, in presence of S9 mix.

[4] = test system: SERT; set-up: method as in PMID 27524685; conditions: rats' brain synaptosomes; read-out: releasing activity on SERT EC50; cited from earlier work
[5] = test system: TK6 cells; assay: Cytotoxicity analysis (Guava ViaCount, cell viability); conditions: 26 h, 25-100 µM
[6] = test system: TK6 cells; assay: Cytostasis analysis (Relative Population Doubling); type: cell-based, human; conditions: 26 h; for Relative Population Doubling (RPD): mean ± SEM; for Cytostatic effect / RPD versus OECD threshold (55 ± 5%): all concentrations up to 100 µM
Protocol: In parallel, always using the Guava ViaCount Reagent, the number of cells seeded at time 0 and the one measured at the end of the treatment time were used to check the correct replication and to calculate the Population Doublings (PD) values. Subsequently, the PD obtained in the control cultures was compared to that measured in the treated cultures obtaining the Relative Population Doublings (RPD). PD and RPD were calculated with the following formulas:(1) PD=logpost−initial cell number/initial cell number÷log2 (2) RPD=PD in treated cultures/PD in control cutures x 100
Similarly, to cytotoxicity, the cytostasis was checked, in order to verify that cell proliferation respected the threshold established by OECD guideline (55 ± 5%).

[7] = test system: DAT; set-up: method as in PMID 27524685; conditions: monoamine uptake, rats' brain synaptosomes; cited from earlier work
[8] = test system: TK6 cells; assay: Apoptosis analysis (Guava Nexin assay); type: cell-based, human; conditions: 26 h, all selected concentrations
Protocol: The percentage of apoptotic cells was evaluated by the Guava Nexin Assay according to the procedure by Lenzi et al. and Cocchi et al..
The reagent contains the 7-aminoactinomycin D (7- AAD), a cells non-permeant dye that allows the discrimination between live and dead cells, and the Annexin-V-PE that allows the identification of apoptotic cells by binding to the phosphatidylserine on the cell surface.
100 μL of reagent was added to 100 μL of cell suspension (~1 × 10^5 cells) and incubated for 20 min at RT. Then, a total of 2000 events were acquired and analyzed by Guava Nexin software.
The apoptotic cell percentages recorded in the cultures treated with synthetic cathinones different concentrations were normalized on those recorded in the untreated control cultures, accounted equal to 1 and expressed as apoptotic fold increase.

[9] = test system: SERT; set-up: method as in PMID 27524685; conditions: monoamine uptake, rats' brain synaptosomes; cited from earlier work
[10] = test system: TK6 cells; assay: In vitro micronucleus test by flow cytometry, without S9 mix; type: cell-based, human; conditions: 26 h, 75 and 100 µM
Protocol: as §1, §2, §3, §4

[11] = test system: mice; conditions: in mice; cited from earlier work
[12] = test system: rats; conditions: in rats; cited from earlier work
[13] = test system: norepinephrine transporter (NET); set-up: method as in PMID 25624004, PMID 27799294; conditions: reuptake inhibition, human embryonic kidney 293 cells; cited from earlier work
[14] = set-up: method as in PMID 26505776, PMID 29963212, PMID 33379373; conditions: human urine of a drug abuser; cited from earlier work
[15] = test system: dopamine transporter (DAT); set-up: method as in PMID 25624004, PMID 27799294; conditions: reuptake inhibition, human embryonic kidney 293 cells; cited from earlier work
[16] = test system: dopamine (DAT), norepinephrine (NET), and serotonin (SERT) transporters; set-up: method as in PMID 25624004, PMID 27799294; conditions: human embryonic kidney 293 cells; cited from earlier work
[17] = test system: serotonin transporter (SERT); set-up: method as in PMID 25624004, PMID 27799294; conditions: human embryonic kidney 293 cells; cited from earlier work
[18] = test system: C2C12 myoblasts; set-up: method as in PMID 30925718; conditions: 24 h, concentrations 10 to 20 times higher than in this paper; cited from earlier work
[19] = set-up: method as in PMID 23797910, PMID 26014283, PMID 27142261; conditions: in vitro studies; cited from earlier work

Structure (SMILES): COc1cc(CCN)c(OC)cc1Br [2C-B]
- mutagenic potential [1]: proved to be mutagen

Structure (SMILES): COc1ccc(OC)c(CCN)c1 [2C-H]
- mutagenic potential [1]: proved to be mutagen

Structure (SMILES): COc1cc(CCN)c(OC)cc1I [2C-I]
- mutagenic potential [1]: proved to be mutagen

Structure (SMILES): COc1cc(CCNCc2ccccc2OC)c(OC)cc1Br [25B-NBOMe]
- mutagenic potential [1]: proved to be mutagen

Structure (SMILES): CCCCCn1nc(C(=O)OC23CC4CC(CC(C4)C2)C3)c2ccccc21 [APINAC]
- mutagenic capacity in terms of increasing the frequency of MNi [1]: mutagenic capacity

Structure (SMILES): O=C(Oc1cccc2cccnc12)c1cn(CC2CCCCC2)c2ccccc12 [BB-22]
- mutagenic capacity in terms of increasing the frequency of MNi [1]: mutagenic capacity

Structure (SMILES): CNC(COC)C(=O)c1ccc(C)cc1 (stereo not shown) [Mexedrone, 3-methoxy-2-(methylamino)-1-(4-methylphenyl)propan-1-one]
- IC50 [2]: ~8.8 µM
- MNi frequency fold increase versus negative control [3]: statistically significant increase at both concentrations tested
- EC50 [4]: 2.5 µM
- Cell viability / cytotoxic effect versus negative control and OECD threshold (55 ± 5%) [5]: do not induce any cytotoxic or cytostatic effects
- Relative Population Doubling (RPD) ([6]; 25 µM): 97.0% ± 3.2
- Relative Population Doubling (RPD) ([6]; 35 µM): 92.0% ± 4.2
- Relative Population Doubling (RPD) ([6]; 50 µM): 88.4% ± 7.9
- Relative Population Doubling (RPD) ([6]; 75 µM): 95.2% ± 3.5
- Relative Population Doubling (RPD) ([6]; 100 µM): 90.1% ± 3.6
- Cytostatic effect / RPD versus OECD threshold (55 ± 5%) [6]: do not induce any cytotoxic or cytostatic effects
- IC50 [7]: ~6.8 µM
- Apoptosis fold increase versus negative control [8]: never reached a doubling
- IC50 [9]: ~5.2 µM
- MNi frequency fold increase versus negative control [10]: significant increase of the MNi frequency at both the concentrations tested

Structure (SMILES): O=C(NC12CC3CC(CC(C3)C1)C2)c1cn(CCCCCF)c2ccccc12 [STS-135]
- mutagenic capacity in terms of increasing the frequency of MNi [1]: mutagenic capacity

Structure (SMILES): C[C@H](N)C(=O)c1ccccc1 [cathinone]
- mutagenicity [11]: mutagenicity demonstrated

Structure (SMILES): CNC(C)C(=O)c1ccc(C)cc1 (stereo not shown) [mephedrone, 4-methyl-N-methyl cathinone]
- mutagenicity [12]: mutagenicity demonstrated

Structure (SMILES): CCCCC(C(=O)c1ccccc1)N1CCCC1 (stereo not drawn) [α-PHP, alpha-pyrrolidinohexanophenone]
- IC50 [13]: 0.04 µM
- number of glucuronide conjugates identified [14]: 9
- number of phase I metabolites identified [14]: 19
- IC50 [15]: 0.02 µM
- MNi frequency fold increase versus negative control [3]: statistically significant increase was observed only at the highest concentration tested
- Cell viability / cytotoxic effect versus negative control and OECD threshold (55 ± 5%) [5]: do not induce any cytotoxic or cytostatic effects
- Relative Population Doubling (RPD) ([6]; 25 µM): 88.3% ± 1.3
- Relative Population Doubling (RPD) ([6]; 35 µM): 94.4% ± 1.7
- Relative Population Doubling (RPD) ([6]; 50 µM): 96.8% ± 3.2
- Relative Population Doubling (RPD) ([6]; 75 µM): 85.2% ± 3.5
- Relative Population Doubling (RPD) ([6]; 100 µM): 85.9% ± 5.6
- Cytostatic effect / RPD versus OECD threshold (55 ± 5%) [6]: do not induce any cytotoxic or cytostatic effects
- neurotransmitters release [16]: do not enhance neurotransmitters release
- Apoptosis fold increase versus negative control [8]: never reached a doubling
- IC50 [17]: > 10 µM
- MNi frequency fold increase versus negative control [10]: no statistically significant increase

Structure (SMILES): CCCC(C(=O)c1ccccc1)N1CCCC1 (stereo not drawn) [α-PVP, alpha-pyrrolidinopentiophenone]
- IC50 [13]: 0.02 µM
- IC50 [15]: 0.04 µM
- MNi frequency fold increase versus negative control [3]: significant increase in MNi frequency at both concentrations tested
- mitochondrial superoxide production [18]: statistically significant increase in mitochondrial superoxide production
- number of phase I metabolites identified [19]: 6
- Cell viability / cytotoxic effect versus negative control and OECD threshold (55 ± 5%) [5]: do not induce any cytotoxic or cytostatic effects
- Relative Population Doubling (RPD) ([6]; 25 µM): 91.5% ± 5.9
- Relative Population Doubling (RPD) ([6]; 35 µM): 88.4% ± 6.8
- Relative Population Doubling (RPD) ([6]; 50 µM): 88.7% ± 7.1
- Relative Population Doubling (RPD) ([6]; 75 µM): 89.9% ± 4.6
- Relative Population Doubling (RPD) ([6]; 100 µM): 87.6% ± 6.3
- Cytostatic effect / RPD versus OECD threshold (55 ± 5%) [6]: do not induce any cytotoxic or cytostatic effects
- neurotransmitters release [16]: do not enhance neurotransmitters release
- Apoptosis fold increase versus negative control [8]: never reached a doubling
- IC50 [17]: > 10 µM
- MNi frequency fold increase versus negative control [10]: no statistically significant increase
